Test results reported in the NIST ThermoML archive (doi:10.1016/j.jct.2004.12.004).

Experiment: mn = molality of the nth substance listed, in mol/kg
Details: 350 kPa, Liquid, Extra sensitive DSC

OC[C@H]1O[C@@H](O[C@H]2[C@H](O)[C@@H](O)[C@H](O)O[C@@H]2CO)[C@H](O)[C@@H](O)[C@@H]1O [D-cellobiose] + O
apparent molar heat capacity [J/K/mol]
Details	m1 = 0.03222	m1 = 0.05175	m1 = 0.07986	m1 = 0.09996	m1 = 0.1501	m1 = 0.3084
278.15 K	562.9	563	562	561.2	563	566.4
283.15 K	593	592.8	591.5	590.9	592	594.5
288.15 K	619.4	618.8	617.3	616.9	617.5	619.6
293.15 K	641.7	641.1	639.4	639.2	639.5	641.1
298.15 K	661.3	660.7	658.6	658.8	658.7	660.1
303.15 K	678.3	677.8	675.4	676.2	675.7	676.9
308.15 K	693.2	692.9	690.6	691.5	690.9	691.8
313.15 K	706.5	706.5	704.1	705	704.3	705.1
318.15 K	718.8	718.9	716.6	717.5	716.7	717.3
323.15 K	730	730.1	728	728.9	728.1	728.5
328.15 K	740.4	740.7	738.6	739.5	738.7	739
333.15 K	750.3	750.6	748.6	749.5	748.7	748.9
338.15 K	759.6	759.9	758	758.9	758.1	758.3
343.15 K	768.2	768.6	766.7	767.6	766.7	766.9
348.15 K	776.4	776.6	774.8	775.8	774.9	775
353.15 K	783.8	784.2	782.5	783.5	782.6	782.7
358.15 K	791.1	791.5	789.8	790.8	789.9	789.9
363.15 K	797.8	798.3	796.7	797.8	796.8	796.8
368.15 K	803.8	804.6	803	804.1	803.1	803.1
373.15 K	809.8	810.7	809	810.1	809.2	809.1
378.15 K	815	816.2	814.6	815.8	814.7	814.7
383.15 K	819.8	821.3	819.7	821.4	820	819.9
388.15 K	823	825.3	824.1	827.6	824.9	824.8
393.15 K	826.1	828.7	827.9	833	829.1	829.2
